According to US20240158446A1, “CYCLIC COMPOUND HAVING SELECTIVE INHIBITORY ACTION ON KRAS OVER HRAS AND NRAS” (CHUGAI SEIYAKU KABUSHIKI KAISHA, priority 2021, published 2024):

How the values were obtained:
[1] = target: GDP-bound HRAS wild-type protein (Homo sapiens, UniProt P01112); assay: Binding to HRAS by surface plasmon resonance (SPR), Single Cycle Kinetics; conditions: for HRAS/KRAS (ratio of KD value with respect to GDP-bound HRAS wild-type protein to KD value with respect to KRAS): SPR KD ratio HRAS/KRAS, class symbols
[2] = target: GDP-bound NRAS wild-type protein (Homo sapiens, UniProt P01111); assay: Binding to NRAS by surface plasmon resonance (SPR), Single Cycle Kinetics; conditions: for NRAS/KRAS (ratio of KD value with respect to GDP-bound NRAS wild-type protein to KD value with respect to KRAS): SPR KD ratio NRAS/KRAS, class symbols
[3] = SPR, GDP-bound HRAS wild-type protein vs GDP-bound KRAS wild-type protein
[4] = SPR, GDP-bound NRAS wild-type protein vs GDP-bound KRAS wild-type protein

Chain of GDP-bound HRAS wild-type protein (P01112 whole entry): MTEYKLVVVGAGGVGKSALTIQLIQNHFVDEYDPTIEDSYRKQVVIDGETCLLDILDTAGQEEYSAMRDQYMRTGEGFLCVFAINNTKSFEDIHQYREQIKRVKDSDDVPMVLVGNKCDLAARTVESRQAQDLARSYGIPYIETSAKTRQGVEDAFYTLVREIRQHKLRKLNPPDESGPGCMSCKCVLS
Chain of GDP-bound NRAS wild-type protein (P01111 whole entry): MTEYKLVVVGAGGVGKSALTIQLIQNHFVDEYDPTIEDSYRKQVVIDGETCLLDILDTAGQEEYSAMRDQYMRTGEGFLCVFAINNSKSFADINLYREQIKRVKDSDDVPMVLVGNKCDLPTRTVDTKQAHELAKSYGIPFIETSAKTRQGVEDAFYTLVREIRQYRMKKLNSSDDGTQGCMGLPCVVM

| Compound | HRAS/KRAS (ratio of KD value with respect to GDP-bound HRAS wild-type protein to KD value with respect to KRAS) [1] | NRAS/KRAS (ratio of KD value with respect to GDP-bound NRAS wild-type protein to KD value with respect to KRAS) [2] | HRAS/KRAS (ratio of KD value for HRAS to KD value for KRAS) [1, 3] | NRAS/KRAS (ratio of KD value for NRAS to KD value for KRAS) [2, 4] | also measured |
| --- | --- | --- | --- | --- | --- |
| CCC(CC)[C@H]1C(=O)N(C)[C@H](C(=O)N(C)C)CC(=O)N(C)[C@@H](COC)C(=O)N[C@@H]([C@@H](C)CC)C(=O)N(C)CC(=O)N(C)[C@H]2C/C=C\CCN(C2=O)[C@@H](Cc2ccc(C)cc2)C(=O)N(C)CC(=O)N[C@@H](CCc2ccc(C(F)(F)F)c(OC)c2)C(=O)N2CCCC[C@H]2C(=O)NC2(CC(C)(C)C2)C(=O)N1C [PP2937] | A (a compound having 10 or more and less than 20 is denoted as A) | A (a compound having 10 or more and less than 20 is denoted as A) |  |  |  |
| CCC[C@H]1C(=O)N[C@@H]([C@@H](C)CC)C(=O)N(C)CC(=O)N(C)[C@H]2C/C=C\CCN(C2=O)[C@@H](Cc2ccc(C(F)(F)F)cc2)C(=O)N(C)CC(=O)N[C@@H](CCc2cc(C)c(C(F)F)c(C)c2)C(=O)N2C[C@H](OCC)C[C@H]2C(=O)NC2(CC(C)(C)C2)C(=O)N(C)[C@@H](C2CCCC2)C(=O)N(C)[C@H](C(=O)N(C)C)CC(=O)N1C [PP2857] | A (a compound having 10 or more and less than 20 is denoted as A) | A (a compound having 10 or more and less than 20 is denoted as A) |  |  |  |
| CCO[C@@H]1C[C@H]2C(=O)NC3(CCC3)C(=O)N(C)[C@@H](C3CCCC3)C(=O)N(C)[C@H](C(=O)N(C)C)CC(=O)N(C)[C@@H](CC3CCCC3)C(=O)N[C@@H]([C@@H](C)CC)C(=O)N(C)CC(=O)N(C)[C@H]3C/C=C\CCN(C3=O)[C@@H](Cc3ccc(C)cc3)C(=O)N(C)CC(=O)N[C@@H](CCc3ccc(CC)c(F)c3)C(=O)N2C1 [PP2686] | A (a compound having 10 or more and less than 20 is denoted as A) | A (a compound having 10 or more and less than 20 is denoted as A) |  |  |  |
| CCCN(C)C(=O)[C@@H]1CC(=O)N(C)[C@@H](C2CC2)C(=O)N[C@@H]([C@@H](C)CC)C(=O)N(C)CC(=O)N(C)[C@H]2C/C=C\CCN(C2=O)[C@@H](Cc2ccc(C(F)(F)F)cc2)C(=O)N(C)CC(=O)N[C@@H](CCc2cc(F)c(C(F)(F)F)c(F)c2)C(=O)N2C[C@H](OCC)C[C@H]2C(=O)NC2(CC(C)(C)C2)C(=O)N(C)[C@@H](C2CCCC2)C(=O)N1C [PP2037] |  |  | A (a compound having 10 or more and less than 20 is denoted as A) | A (a compound having 10 or more and less than 20 is denoted as A) |  |
| CC[C@H](C)[C@@H]1NC(=O)[C@H](CC(C)C)N(C)C(=O)C[C@@H](C(=O)N2CCOCC2)N(C)C(=O)[C@H](C2CCCC2)N(C)C(=O)C2(CCC2)NC(=O)[C@]2(C)CCCN2C(=O)[C@H](CCc2cc(F)c(C(F)(F)F)c(F)c2)NC(=O)CN(C)C(=O)[C@H](Cc2ccc(C(F)(F)F)cc2)N2CCCCC[C@@H](C2=O)N(C)C(=O)CN(C)C1=O [PP0817] |  |  | B (a compound having 3 or more and less than 10 is denoted as B) | A (a compound having 10 or more and less than 20 is denoted as A) |  |
| CC[C@H](C)[C@@H]1NC(=O)[C@H](CC(C)C)N(C)C(=O)C[C@@H](C(=O)N2CCOCC2)N(C)C(=O)[C@H](C2CCCC2)N(C)C(=O)C2(CCCC2)NC(=O)[C@@H]2CCCN2C(=O)[C@H](CCc2cc(F)c(C(F)(F)F)c(F)c2)NC(=O)CN(C)C(=O)[C@H](Cc2ccc(C(F)(F)F)cc2)N2CCCC[C@@H](C2=O)N(C)C(=O)[C@H](CC)N(C)C1=O [PP0551] |  |  |  |  | HRAS/KRAS (ratio of KD value with respect to HRAS to KD value with respect to KRAS) [1, 3]: B (a compound having 3 or more and less than 10 is denoted as B); NRAS/KRAS (ratio of KD value with respect to NRAS to KD value with respect to KRAS) [2, 4]: C (A compound having a KD ratio of 0.1 or more and less than 3 is denoted as C) |
